US20230348426A1, “OXOPYRROLIDINE FPR2 AGONISTS” (Bristol-Myers Squibb Company, priority 2020, published 2023)

Key:
human FPR2 = human FPR2 (Homo sapiens (Human), UniProt P25090); assay: FPR2 cyclic adenosine monophosphate (cAMP) assay; assay type: cell-based; details: CHO cells overexpressing human FPR2; forskolin 5 µM; inhibition of cAMP production; read-out: hFPR2 cAMP2 EC50
Summary of the method: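 Inhibition of forskolin-driven (5 µM) cAMP, with 200 µM IBMX, measured in human FPR2-expressing CHO cells, 2,000 per well, 30 min at room temperature; compounds tested 0.020 nM to 100 µM in 1% DMSO. HTRF 665/590 ratio converted to cAMP via calibration curve, then 4-parameter fit.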

human FPR1 = human FPR1 (Homo sapiens (Human), UniProt P21462); assay: FPR1 cyclic adenosine monophosphate (cAMP) assay; assay type: cell-based; details: CHO cells overexpressing human FPR1; forskolin 10 µM; inhibition of cAMP production; read-out: hFPR1 cAMP EC50
human FPR1, sequence (P21462 whole entry): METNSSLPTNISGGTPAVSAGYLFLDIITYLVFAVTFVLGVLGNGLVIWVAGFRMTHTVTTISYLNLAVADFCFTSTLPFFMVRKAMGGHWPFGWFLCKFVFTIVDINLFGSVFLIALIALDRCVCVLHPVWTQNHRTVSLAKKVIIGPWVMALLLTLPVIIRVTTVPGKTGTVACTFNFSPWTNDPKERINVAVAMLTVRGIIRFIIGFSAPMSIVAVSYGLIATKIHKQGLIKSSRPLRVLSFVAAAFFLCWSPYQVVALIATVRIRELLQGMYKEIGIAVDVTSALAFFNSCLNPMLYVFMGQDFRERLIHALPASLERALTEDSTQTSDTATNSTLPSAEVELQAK
Summary of the method: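 Human FPR1-expressing CHO cells were used at 4,000 per well, with compound at 0.020 nM–100 µM in 1% DMSO. Potency came from a 4-parameter logistic fit.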

human FPR2, sequence (P25090 whole entry): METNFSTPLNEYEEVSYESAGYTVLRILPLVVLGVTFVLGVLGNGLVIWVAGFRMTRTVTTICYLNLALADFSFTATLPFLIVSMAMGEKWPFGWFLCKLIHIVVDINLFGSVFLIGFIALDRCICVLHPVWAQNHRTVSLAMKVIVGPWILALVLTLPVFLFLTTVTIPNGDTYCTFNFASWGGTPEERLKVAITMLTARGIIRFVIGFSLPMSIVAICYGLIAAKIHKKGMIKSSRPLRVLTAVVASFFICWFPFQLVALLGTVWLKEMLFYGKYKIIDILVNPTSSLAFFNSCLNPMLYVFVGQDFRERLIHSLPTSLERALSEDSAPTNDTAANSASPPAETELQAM

EC50 (human FPR2) [nM] | EC50 (human FPR1) [nM] | Compound
2.7 | 15 | COCC(CO)n1cccc(N2C[C@@H](c3ccc(OC)cc3)[C@H](NC(=O)c3ccc(Cl)cc3)C2=O)c1=O (stereo partly drawn) [Example 397]
7.2 | 11 | COCCn1nccc(N2C[C@@H](c3c(F)cc(OC)cc3F)[C@H](NC(=O)c3ccc(OC(F)F)cc3)C2=O)c1=O [Example 398]
3.7 | 7 | COc1ccc([C@@H]2CN(c3c(C)ccn(CCC(F)(F)F)c3=O)C(=O)[C@H]2NC(=O)c2ccc(Cl)cc2)c(F)c1 [Example 401]
2.8 | 3 | COc1ccc([C@@H]2CN(c3c(C)ccn(CCC(F)(F)F)c3=O)C(=O)[C@H]2NC(=O)c2ccc(OC(F)F)cc2)c(F)c1 [Example 402]
4.7 | 2 | COc1ccc([C@@H]2CN(c3cccn(CC(C)OC)c3=O)C(=O)[C@H]2NC(=O)c2ccc(OC(F)(F)F)cc2)cc1 (stereo partly drawn) [Example 405]
2.9 | 9 | COCC(CO)n1cccc(N2C[C@@H](c3ccc(Cl)cc3)[C@H](NC(=O)c3ccc(Cl)cc3)C2=O)c1=O (stereo partly drawn) [Example 406]
7.8 | 640 | COc1cc(F)c([C@H]2[C@H](NC(=O)c3ccc(OC(F)F)cc3)C(=O)N(c3cccn(CCO)c3=O)[C@@H]2C)c(F)c1 [Example 407]
3.5 | 9 | COCCOc1ncccc1N1C[C@@H](c2c(F)cc(OC)cc2F)[C@H](NC(=O)c2ccc(OC(F)(F)F)cc2)C1=O [Example 408]
6.3 | 36 | CC(O)Cn1cccc(N2C[C@@H](c3ccc(Cl)cc3)[C@H](NC(=O)c3ccc(OC(F)F)cc3)C2=O)c1=O (stereo partly drawn) [Example 409]
11.7 | 3300 | COCCNc1ccnc(N2C[C@@H](c3c(F)cc(OC)cc3F)[C@H](NC(=O)c3ccc(Cl)cc3)C2=O)c1C(F)(F)F [Example 410]
2.6 | 120 | COCC(CO)n1cccc(N2C[C@@H](c3ccc(OC)cc3)[C@H](NC(=O)c3ccc(Cl)cc3)C2=O)c1=O (stereo partly drawn) [Example 411]
7.6 | 93 | COCCOc1ncccc1N1C[C@@H](c2c(F)cc(OC)cc2F)[C@H](NC(=O)c2ccc(OC(F)F)cc2)C1=O [Example 412]
0.6 | 120 | COCCOc1ncccc1N1C[C@@H](c2c(F)cc(OC)cc2F)[C@H](NC(=O)c2ccc(Cl)cc2)C1=O [Example 413]
4.7 | 19 | COCC(CO)n1cccc(N2C[C@@H](c3ccc(Cl)cc3)[C@H](NC(=O)c3ccc(Cl)cc3)C2=O)c1=O (stereo partly drawn) [Example 414]
6.8 | 3 | Cc1ccn(CC(F)F)c(=O)c1N1C[C@@H](c2ccc(Cl)cc2)[C@H](NC(=O)c2ccc(OC(F)F)cc2)C1=O [Example 415]
1.7 | 1 | COc1ccc([C@@H]2CN(c3cccn(CC(OC)C(F)(F)F)c3=O)C(=O)[C@H]2NC(=O)c2ccc(OC(F)F)cc2)cc1 (stereo partly drawn) [Example 416]
2.9 | 17 | COc1cc(F)c([C@@H]2CN(c3cccn(CC(OC)C(F)(F)F)c3=O)C(=O)[C@H]2NC(=O)c2ccc(Cl)cc2)c(F)c1 (stereo partly drawn) [Example 417]
2.7 | 4 | COc1ccc([C@@H]2CN(c3cccn(CC(C)OC)c3=O)C(=O)[C@H]2NC(=O)c2ccc(OC(F)F)cc2)c(F)c1 (stereo partly drawn) [Example 418]
4.8 | 110 | COc1cc(F)c([C@@H]2CN(c3nccc(NCCO)c3C(F)(F)F)C(=O)[C@H]2NC(=O)c2ccc(Cl)cc2)c(F)c1 [Example 419]
7.3 | 51 | COc1cc(F)c([C@@H]2CN(c3nccc(N4CCOCC4)c3C(F)(F)F)C(=O)[C@H]2NC(=O)c2ccc(Cl)cc2)c(F)c1 [Example 420]

EC50 (human FPR2) [nM] | EC50 (human FPR1) [nM] | Compound
3.3 | 15 | COc1cc(F)c([C@@H]2CN(c3c(C)ccn(CC(F)F)c3=O)C(=O)[C@H]2NC(=O)c2ccc(Cl)cc2)c(F)c1 [Example 421]
1.1 | 3 | COCCn1ccc(C)c(N2C[C@@H](c3c(F)cc(OC)cc3F)[C@H](NC(=O)c3ccc(Cl)cc3)C2=O)c1=O [Example 422]
4.7 | 1100 | COCCNc1ccnc(N2C[C@@H](c3c(F)cc(OC)cc3F)[C@H](NC(=O)c3ccc(Cl)cc3)C2=O)c1C(F)(F)F [Example 423]
2.2 | 11 | CC(O)Cn1cccc(N2C[C@@H](c3ccc(Cl)cc3)[C@H](NC(=O)c3ccc(Cl)cc3)C2=O)c1=O (stereo partly drawn) [Example 424]
2.3 | 4 | COCC(CO)n1ccc(C)c(N2C[C@@H](c3c(F)cc(OC)cc3F)[C@H](NC(=O)c3ccc(OC(F)F)cc3)C2=O)c1=O (stereo partly drawn) [Example 426]
4.4 | 2 | COCC(CO)n1ccc(C)c(N2C[C@@H](c3c(F)cc(OC)cc3F)[C@H](NC(=O)c3ccc(OC(F)(F)F)cc3)C2=O)c1=O (stereo partly drawn) [Example 427]
9 | 8 | COCC(C(=O)N(C)C)n1cccc(N2C[C@@H](c3ccc(OC)cc3F)[C@H](NC(=O)c3ccc(OC(F)F)cc3)C2=O)c1=O (stereo partly drawn) [Example 428]
3.3 | 5 | COc1cc(F)c([C@@H]2CN(c3c(C)ccn(CCC(F)(F)F)c3=O)C(=O)[C@H]2NC(=O)c2ccc(Cl)cc2)c(F)c1 [Example 430]
9.1 | 3800 | COc1ccnc(N2C(=O)[C@@H](NC(=O)c3ccc(Cl)cc3)[C@H](c3c(F)cc(OC)cc3F)[C@@H]2C)c1 [Example 432]
1.8 | 1 | COc1ccc([C@@H]2CN(c3cccn(CC(OC)C(F)(F)F)c3=O)C(=O)[C@H]2NC(=O)c2ccc(OC(F)(F)F)cc2)cc1 (stereo partly drawn) [Example 433]
4.4 | 10 | COc1ccc([C@@H]2CN(c3cccn(CC(C)O)c3=O)C(=O)[C@H]2NC(=O)c2ccc(OC(F)F)cc2)cc1 (stereo partly drawn) [Example 434]
2.8 | 4 | COc1ccc([C@@H]2CN(c3cccn(CC(C)O)c3=O)C(=O)[C@H]2NC(=O)c2ccc(OC(F)(F)F)cc2)c(F)c1 (stereo partly drawn) [Example 435]
< 5 | 9 | COc1ccc([C@@H]2CN(c3cccn(CC(C)O)c3=O)C(=O)[C@H]2NC(=O)c2ccc(OC(F)F)cc2)c(F)c1 (stereo partly drawn) [Example 436]
1 | 1 | COCC(CO)n1cccc(N2C[C@@H](c3ccc(OC)cc3F)[C@H](NC(=O)c3ccc(OC(F)(F)F)cc3)C2=O)c1=O (stereo partly drawn) [Example 437]
3.9 | 7 | COCC(CO)n1cccc(N2C[C@@H](c3ccc(OC)cc3F)[C@H](NC(=O)c3ccc(OC(F)F)cc3)C2=O)c1=O (stereo partly drawn) [Example 438]
5.5 | 7 | CC(O)Cn1cccc(N2C[C@@H](c3ccc(Cl)cc3)[C@H](NC(=O)c3ccc(OC(F)(F)F)cc3)C2=O)c1=O (stereo partly drawn) [Example 439]
1.3 | 11 | COc1ccc([C@@H]2CN(c3cccn(CC(C)O)c3=O)C(=O)[C@H]2NC(=O)c2ccc(OC(F)(F)F)cc2)cc1 (stereo partly drawn) [Example 440]
5.2 | 3 | COCC(C(=O)N1CCOCC1)n1cccc(N2C[C@@H](c3ccc(OC)cc3)[C@H](NC(=O)c3ccc(OC(F)F)cc3)C2=O)c1=O (stereo partly drawn) [Example 441]
9.6 | 1 | Cc1ccn(CC2CC2)c(=O)c1N1C[C@@H](c2ccc(Cl)cc2)[C@H](NC(=O)c2ccc(OC(F)F)cc2)C1=O [Example 442]
